# Values joined by “and” are separate entries in the source; they are usually repeats but may differ in a detail not shown here. Identical values can stand only once. Counter-ions that a name gives are not always drawn.
# Tests used:
# arrector pili muscle = details: 1% w/v, iontophoresis; cited from earlier work
# [1] = IVRT Franz cell skin penetration, excised pig skin; assay type: in vitro ADME; details: for Penetration (%), Sample 1-3 / Penetration (%), Average: pig skin; for Penetration (%), Sample 1-3: single replicates, Hydrochloride
# Text: Transdermal penetration of a particular formulation can be assessed with in vitro release testing (IVRT) using a Franz cell. See Bartosova and Bajagar, “Transdermal Drug Delivery In Vitro Using Diffusion Cells,” Current Medicinal Chemistry, 2012, 19, 4671-4677.
# In order to determine the dermal absorption and bioavailability of topically applied 10% Phenylephrine Hydrochloride solution, we used an IVRT experimental setup with both skin excised from pig ears and a synthetic skin model (Maine Manufacturing, LLC, Me., USA).
# In the example, the following data was obtained from a Franz cell diffusion experiment using excised pigskin barrier. A 50 microliter aliquot of a phenylephrine solution was allowed to penetrate through 9 mm diameter sample of pigskin into a 5 mL reservoir of phosphate buffered saline. Phenylephrine concentration was determined in the reservoir by measuring the optical absorbance at 214 nm at time points subsequent to the application of the formulation. In the following example the test solution was 10% (w/w) phenylephrine, 10% (w/w) Dimethyl Isosorbide, and 80% (w/w) ethanol. From the data below, it can be concluded that the formulation can be deemed “successful” because 82% of the applied drug penetrated the pigskin membrane in 3 hours. The experiment was run in triplicate. The average of all three data is shown. It is envisioned that additional studies may be undertaken with other models of in vitro release testing or with variations of the same model to compare with the data reported below.
# nipple areola complex = experiment: Blinded study of 10%, 15%, 20% phenylephrine on the NAC: erection, sensitivity, lubrication, arousal (Example 12); assay type: in vivo, human; details: for Arousal / Lubrication: 60 minutes, change from baseline; for Responders, Arousal / Responders, Lubrication: 20 patients; for Erection: 1 = erection reported
# Method: 20 healthy, pre-menopausal females were recruited to the study. Subjects were instructed to apply either 4 or 6 drops of an investigational drug to each nipple areola complex. Baseline blood-pressure, heart rate, nipple erection, nipple sensitivity, genital lubrication and arousal were measured and recorded. 30 minutes later, blood pressure and heart rate were measured and recorded. 60 minutes later, blood-pressure, heart rate, nipple erection, nipple sensitivity, genital lubrication and arousal were measured and recorded.
# During the study, four parameters of efficacy were measured: nipple erection, nipple sensitivity, genital lubrication, and arousal. Efficacy parameters were all patient reported outcomes measured at 0 and 60 minutes after the application of the investigational drug. Nipple erection was determined by asking the patient if they had experienced nipple erection during the 60 minutes after the application of the investigational drug. Nipple sensitivity was measured with a Likert scale of 1-10 (1 being “insensitive”, 10 being “extremely sensitive/bordering on pain”) at 0 and 60 minutes after the application of the investigational drug. Genital lubrication was measured with a Likert scale of 1-10 (1 being “none”, 10 being “excellent”) at 0 and 60 minutes after the application of the investigational drug. Arousal was measured with a Likert scale of 1-10 (1 being “none”, 10 being “extremely aroused”) at 0 and 60 minutes after the application of the investigational drug.
# After a 48-hour washout period, subjects repeated the procedure using 4 or 6 drops of a new arm of the study. The subjects and the investigator were blinded to the drug assignment in each arm. In total 6 arms were tested:
# Nipple erection data was scored “1” for a positive response to the question “Did you experience nipple erection after applying the solution?” It was scored “0” otherwise. Sensitivity data was tabulated by subtracting the patient reported nipple sensitivity at 60 minutes from the reported value at baseline. Subjects were asked to rate their level of nipple sensitivity on a scale of 1-10 (1 being “non-sensitive” and 10 being “extremely sensitive, bordering on pain.”) Subjects reporting a sensitivity increase greater than 2 after the application of each investigational drug were considered sensitivity responders.
# Genital lubrication was measured with a Likert scale of 1-10 (1 being “none” and 10 being “excellent”) at 0 and 60 minutes after the application of the investigational drug. Arousal was measured with a Likert scale of 1-10 (1 being “none” and 10 being “extremely aroused”) at 0 and 60 minutes after the application of the investigational drug. […] A subject was considered a responder for genital lubrication if they reported a change in genital lubrication of 2 or more.
# A subject was considered a responder for arousal if they reported a change in arousal of 2 or more.
# nipple-areola complex = experiment: Phenylephrine FSFI orgasm domain study (Example 8); assay type: in vivo, human
# Method: Phenylephrine HCl 15%. A study was conducted to evaluate the effect of Phenylephrine HCl 15% on the FSFI orgasm domain. Three premenopausal subjects participated in the study. Subjects were not hypertensive, pregnant or breastfeeding.
# nipple areole complex = experiment: Pilot study in female sexual dysfunction, SSE by Sexual Activity Record (Example 4)
# [2] = 10% (Arm C), change of 2 or more
# [3] = 15% (Arm D), single patients, Hydrochloride
# [4] = 20% (Arm B), single patients, Hydrochloride
# [5] = Phenylephrine HCl 15%, single subjects, Hydrochloride
structure (smiles),measurement,setting,value
"CNC[C@H](O)c1cccc(O)c1 [Phenylephrine HCl, Phenylephrine Hydrochloride]",piloerection on the forearm,arrector pili muscle,can activate the piloerection on the forearm
same,average absorption per nipple-areola complex,[1]; 0.1 mL of 10% solution not removed for 24 hours,8.3 mg
same,applied drug penetrated the pigskin membrane,"[1]; 10% (w/w) in 10% Dimethyl Isosorbide, 80% ethanol, 3 hours",82%
same,"Penetration (%), Sample 1-3","[1]; 10% solution, 50 microliter, 1 h",32.3% and 2.1% and 0.7%
same,"Penetration (%), Average","[1]; 10% solution, 1 h",11.7%
same,"Penetration (%), Average","[1]; 10% solution, 2 h",61.1%
same,"Penetration (%), Sample 1-3","[1]; 10% solution, 2 h",80.6% and 89.0% and 13.6%
same,"Penetration (%), Average","[1]; 10% solution, 3 h",82.8%
same,"Penetration (%), Sample 1-3","[1]; 10% solution, 3 h",78.9% and 87.5% and 81.9%
same,"Penetration (%), Average","[1]; 10% solution, 4 h",81.0%
same,"Penetration (%), Sample 1-3","[1]; 10% solution, 4 h",78.6% and 83.4% and 81.1%
same,"Penetration (%), Average","[1]; 10% solution, 5 h",81.9%
same,"Penetration (%), Sample 1-3","[1]; 10% solution, 5 h",78.5% and 86.0% and 81.3%
same,"Penetration (%), Average","[1]; 10% solution, 24 h",81.6%
same,"Penetration (%), Sample 1-3","[1]; 10% solution, 24 h",81.3% and 83.1% and 80.3%
same,maximal skin absorption in 24 hours,"[1]; 10% solution, skin excised from pig ears",≤ 83%
same,"Percent responders, Arousal",nipple areola complex; 10% (Arm C),0%
same,"Percent responders, Lubrication",nipple areola complex; 10% (Arm C),5%
same,Arousal,"nipple areola complex; 10% (Arm C), Likert 1-10, single patients",0
same,Lubrication,"nipple areola complex; 10% (Arm C), Likert 1-10, single patients, Hydrochloride",0 (17×) and 1 (2×) and 2
same,"Responders, Arousal",nipple areola complex; [2],0
same,"Responders, Lubrication",nipple areola complex; [2],1
same,"% Responders, Erection","nipple areola complex; 10%, four drops",37%
same,"% Responders, Sensitivity","nipple areola complex; 10%, four drops",16%
same,Erection,"nipple areola complex; 10%, four drops (0.114 mL) per NAC, 0 otherwise, single patients, listed as PE, Hydrochloride",0 (11×) and 1 (8×)
same,"Responders, Erection","nipple areola complex; 10%, four drops, 19 patients",7
same,"Responders, Sensitivity","nipple areola complex; 10%, four drops, 19 patients",3
same,Sensitivity,"nipple areola complex; 10%, four drops, change baseline to 60 minutes, scale 1-10, single patients, listed as PE, Hydrochloride",1 (7×) and 0 (9×) and 5 and 2 (2×)
same,"% Responders, Erection","nipple areola complex; 10%, six drops",50%
same,"% Responders, Sensitivity","nipple areola complex; 10%, six drops",44%
same,Erection,"nipple areola complex; 10%, six drops (0.170 mL) per NAC, single patients, listed as PE, Hydrochloride",1 (8×) and 0 (8×)
same,"Responders, Erection","nipple areola complex; 10%, six drops, 16 patients",8
same,"Responders, Sensitivity","nipple areola complex; 10%, six drops, 16 patients",7
same,Sensitivity,"nipple areola complex; 10%, six drops, change baseline to 60 minutes, scale 1-10, single patients, listed as PE, Hydrochloride",4 (2×) and 0 (6×) and 1 (3×) and 3 (2×) and 2 (3×)
same,"Percent responders, Arousal",nipple areola complex; 15% (Arm D),0%
same,"Percent responders, Lubrication",nipple areola complex; 15% (Arm D),10%
same,"Responders, Arousal",nipple areola complex; 15% (Arm D),0
same,"Responders, Lubrication",nipple areola complex; 15% (Arm D),2
same,Arousal,nipple areola complex; [3],0 (19×) and −1
same,Lubrication,nipple areola complex; [3],0 (15×) and 2 and 1 (3×) and 3
same,"% Responders, Erection","nipple areola complex; 15%, four drops",42%
same,"% Responders, Sensibility","nipple areola complex; 15%, four drops",53%
same,"Responders, Erection","nipple areola complex; 15%, four drops, 19 patients",8
same,"Responders, Sensibility","nipple areola complex; 15%, four drops, 19 patients",10
same,Erection,"nipple areola complex; 15%, four drops, single patients, listed as PE, Hydrochloride",0 (11×) and 1 (8×)
same,Sensibility,"nipple areola complex; 15%, four drops, change baseline to 60 minutes, scale 1-10, single patients, listed as PE, Hydrochloride",0 (7×) and 2 (5×) and 5 and 1 (2×) and 3 (3×) and 9
same,"Percent responders, Arousal",nipple areola complex; 20% (Arm B),0%
same,"Percent responders, Lubrication",nipple areola complex; 20% (Arm B),20%
same,"Responders, Arousal",nipple areola complex; 20% (Arm B),0
same,"Responders, Lubrication",nipple areola complex; 20% (Arm B),4
same,Arousal,nipple areola complex; [4],0 (19×) and 1
same,Lubrication,nipple areola complex; [4],0 (15×) and 2 (3×) and 1 and 3
same,"% Responders, Erection","nipple areola complex; 20%, four drops",68%
same,"% Responders, Sensitivity","nipple areola complex; 20%, four drops",42%
same,"Responders, Erection","nipple areola complex; 20%, four drops, 19 patients",13
same,"Responders, Sensitivity","nipple areola complex; 20%, four drops, 19 patients",8
same,Erection,"nipple areola complex; 20%, four drops, single patients, listed as PE, Hydrochloride",1 (13×) and 0 (6×)
same,Sensitivity,"nipple areola complex; 20%, four drops, change baseline to 60 minutes, scale 1-10, single patients, listed as PE, Hydrochloride",0 (7×) and 1 (4×) and 2 (5×) and 4 (2×) and 9
same,adverse events,nipple-areola complex; 15%,No adverse events were reported
same,subjects with increased sensitivity and nipple erection,"nipple-areola complex; 15%, subjects without response to 10%",3 of 5
same,"FSFI Scale How Difficult to Reach Orgasm, Intervention",nipple-areola complex; [5],5 (2×) and 4
same,"FSFI Scale How Often Orgasm was Reached, Intervention",nipple-areola complex; [5],5 and 4 (2×)
same,nipple sensitivity past application,nipple-areola complex; report,≤ 12 h
same,Number of SSE (1 week),"nipple areole complex; 0.1 mL 10% solution per NAC about 1 hour before sexual activity, single subjects, Hydrochloride",2 (2×) and 1 (2×) and 6 and 3 (3×) and 4
same,time nipples remained sensitive,nipple areole complex; 10% solution,3 to 4 h
same,time to increased nipple sensitivity after application,"nipple areole complex; 10% solution, all subjects",≤ 30 min
same,subjects with significant change in number of SSEs from baseline,"nipple areole complex; nine subjects, one week",Seven subjects reported significant change in the number of SSEs from baseline
same,adverse events,nipple areole complex; one subject of nine,slightly painful nipple erection
same,persistence of sensitivity,nipple areole complex; one subject with initial slightly painful nipple erection,approximately 8 hours
same,desire (modified FSFI desire domain),nipple areole complex; subjects reporting increase in number of SSEs,increased desire

# Source: patent publication US20170165253A1, “TREATMENT OF SEXUAL DYSFUNCTION AND FOR IMPROVED SEXUAL QUALITY OF LIFE” (ReJoy, priority 2015, published 2017)
